According to US9278958B2, “Anti-cancer compounds” (KATHOLIEKE UNIVERSITEIT LEUVEN, priority 2012, dated 2016):
Read-outs that look alike come from different tables or passages of the source.

Assays:
[1] = system: DU145 (UZ) prostate cancer cells; assay: Cytostatic assay, DU145 (UZ); format: cell-based; conditions: Homo sapiens, DU-145; Table 4
Description: (§1) To each well of a 96-well microtiter plate were added 5-7.5×10^4 cells and a given amount of the test compound. The cells were allowed to proliferate for 48 h to 96 h (depending on the nature of the cell line) at 37° C. in a humidified CO2-controlled atmosphere. At the end of the incubation period, the cells were counted in a Coulter Counter (Coulter Electronics Ltd, Harpenden Herts, United Kingdom).

[2] = system: PLC/PRF/5 hepatoma cells; assay: Cytostatic assay, PLC/PRF/5; format: cell-based; conditions: Homo sapiens, Table 4
Description: as §1

[3] = system: PNT1A (UZ) prostate cells; assay: Cytostatic assay, PNT1A (UZ); format: cell-based; conditions: Homo sapiens, Table 4
Description: as §1

[4] = system: Molt4/C8 cells; assay: Cytostatic assay, Molt4/C8; format: cell-based; conditions: Table 2
Description: as §1

[5] = system: BAEC aortic endothelial cells; assay: Cytostatic assay, BAEC; format: cell-based, bovine; conditions: Bos taurus, Table 3
Description: as §1

[6] = system: HeLa cervix carcinoma cells; assay: Cytostatic assay, HeLa; format: cell-based, human; conditions: Homo sapiens; Table 3; read-out: Cytostatic activity (μM) Hela
Procedure, shortened: (§2)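 Cells (5-7.5×10^4/well) + test compound; growth 48–96 h (line-dependent), 37° C, humidified CO2 atmosphere; endpoint Coulter count.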

[7] = system: HepG2C3A hepatoma cells; assay: Cytostatic assay, HepG2C3A; format: cell-based; conditions: Homo sapiens, HepG2/C3A; Table 4
Description: as §1

[8] = system: HT29 colorectal carcinoma cells; assay: Cytostatic assay, HT29; format: cell-based; conditions: Homo sapiens, HT-29; Table 3
Description: as §1

[9] = system: Caki-2 kidney carcinoma cells; assay: Cytostatic assay, Caki-2; format: cell-based; conditions: Homo sapiens, Table 3
Description: as §1

[10] = system: DNA synthesis in Raji cells; assay: Antimetabolic activity assay, [CH3-3H]dThd incorporation (DNA synthesis), Raji; format: cell-based; conditions: Homo sapiens, incorporation into TCA-insoluble material
Description: [The procedure below names another cell line; the source lists this cell line under the same test.] (§3) Radiolabeled precursors of DNA synthesis ([^3H-methyl]dThd), RNA synthesis ([5-^3H]Urd), and protein synthesis ([4,5-^3H]leu) were added to 10^5 CEM cell cultures in the 200 μl-wells of a microtiter plate at 1 μCi for each precursor in the presence of varying concentrations of the test compounds (5-fold dilution series). The cells were allowed to proliferate for 20 hrs at 37° C. in a humidified, CO2-controlled atmosphere. At the end of the incubation period, the contents of the wells were brought onto 25-mm glass fiber filters and further processed for measurement of acid-insoluble radioactivity.

[11] = system: CEM cells; assay: Cytostatic assay, CEM; format: cell-based; conditions: Homo sapiens, CCRF-CEM
Procedure, shortened: as §2

[12] = system: PC3 (rega) prostate cancer cells; assay: Cytostatic assay, PC3 (rega); format: cell-based; conditions: Table 4
Description: as §1

[13] = system: 22Rv1 (UZ) prostate cancer cells; assay: Cytostatic assay, 22Rv1 (UZ); format: cell-based; conditions: Homo sapiens, Table 4
Description: as §1

[14] = system: MT-4 cells; assay: Cytostatic assay, MT-4; format: cell-based; conditions: Homo sapiens, MT4; Table 2
Description: as §1

[15] = system: Huh-7 hepatoma cells; assay: Cytostatic assay, Huh-7; format: cell-based; conditions: Homo sapiens, Table 4
Description: as §1

[16] = system: HUT-78 cells; assay: Cytostatic assay, HUT-78; format: cell-based; conditions: Homo sapiens, HuT78; Table 2
Description: as §1

[17] = system: Raji, human B-lymphoma cells; assay: Cytostatic assay, Raji; format: cell-based; conditions: Table 2
Description: as §1

[18] = system: THP-1, human monocytic cells; assay: Cytostatic assay, THP-1; format: cell-based; conditions: Table 2
Description: as §1

[19] = system: FM3A mammary carcinoma cells; assay: Cytostatic assay, FM3A; format: cell-based, murine; conditions: Mus musculus, Table 3
Description: as §1

[20] = system: HL60, human leukemia cells; assay: Cytostatic assay, HL-60; format: cell-based; conditions: Table 2
Description: as §1

[21] = system: BPH-1 (UZ); assay: Cytostatic assay, BPH-1 (UZ); format: cell-based; conditions: Homo sapiens, Table 4
Description: as §1

[22] = system: U87 glioma cells; assay: Cytostatic assay, U87; format: cell-based; conditions: Homo sapiens, U-87 MG; Table 3
Description: as §1

[23] = system: Sup T1 cells; assay: Cytostatic assay, Sup T1; format: cell-based; conditions: Homo sapiens, Table 2, read-out: Cytostatic activity (μM) Sup T 1
Description: as §1

[24] = system: OST TK- osteosarcoma cells; assay: Cytostatic assay, OST TK-; format: cell-based; conditions: Homo sapiens; Table 3
Description: as §1

[25] = system: U937, human monocytic cells; assay: Cytostatic assay, U937; format: cell-based; conditions: U-937, Table 2
Description: as §1

[26] = system: protein synthesis in CEM cells; assay: Antimetabolic activity assay, [4,5-3H]leucine incorporation (protein synthesis), CEM; format: cell-based; conditions: Homo sapiens, CCRF-CEM, incorporation into TCA-insoluble material
Description: as §3

[27] = system: L1210 cells; assay: Cytostatic assay, L1210; format: cell-based; conditions: Mus musculus, Table 2
Description: as §1

[28] = system: protein synthesis in Raji cells; assay: Antimetabolic activity assay, [4,5-3H]leucine incorporation (protein synthesis), Raji; format: cell-based; conditions: Homo sapiens, incorporation into TCA-insoluble material
Description: [The procedure below names another cell line; the source lists this cell line under the same test.] as §3

[29] = system: 293T embryonic kidney cells; assay: Cytostatic assay, 293T; format: cell-based; conditions: Homo sapiens, HEK-293T; Table 3
Description: as §1

[30] = system: RNA synthesis in CEM cells; assay: Antimetabolic activity assay, [5-3H]uridine incorporation (RNA synthesis), CEM; format: cell-based; conditions: Homo sapiens, CCRF-CEM, incorporation into TCA-insoluble material
Description: as §3

[31] = system: Caki-1 kidney carcinoma cells; assay: Cytostatic assay, Caki-1; format: cell-based; conditions: Homo sapiens, Table 3
Description: as §1

[32] = system: HEL embryonic lung fibroblast cells; assay: Cytostatic assay, HEL; format: cell-based; conditions: Homo sapiens, Table 3
Description: as §1

[33] = system: MT-2 cells; assay: Cytostatic assay, MT-2; format: cell-based; conditions: Homo sapiens, MT2; Table 2
Description: as §1

[34] = system: DNA synthesis in CEM cells; assay: Antimetabolic activity assay, [CH3-3H]dThd incorporation (DNA synthesis), CEM; format: cell-based; conditions: Homo sapiens, CCRF-CEM, incorporation into TCA-insoluble material
Description: as §3

[35] = system: LNCaP (UZ) prostate cancer cells; assay: Cytostatic assay, LNCaP (UZ); format: cell-based; conditions: Homo sapiens, Table 4
Description: as §1

[36] = system: C8166 cells; assay: Cytostatic assay, C8166; format: cell-based; conditions: Homo sapiens, Table 2
Description: as §1

[37] = system: MCF-7 mammary carcinoma cells; assay: Cytostatic assay, MCF-7; format: cell-based; conditions: Homo sapiens, MCF7; Table 3
Description: as §1

[38] = system: PC-3 (UZ) prostate cancer cells; assay: Cytostatic assay, PC-3 (UZ); format: cell-based; conditions: Table 4
Description: as §1

[39] = system: RNA synthesis in Raji cells; assay: Antimetabolic activity assay, [5-3H]uridine incorporation (RNA synthesis), Raji; format: cell-based; conditions: Homo sapiens, incorporation into TCA-insoluble material
Description: [The procedure below names another cell line; the source lists this cell line under the same test.] as §3

[40] = Table 1a, read-out: IC50 μM (CEM)
[41] = Table 2, read-out: Cytostatic activity (μM) CEM

Row | IC50 [1] [µM] | IC50 [2] [µM] | IC50 [3] [µM] | IC50 [4] [µM] | IC50 [5] [µM] | IC50 [6] [µM] | IC50 [7] [µM] | IC50 [8] [µM] | IC50 [9] [µM] | IC50 [10] [µM] | IC50 [11, 40] [µM] | IC50 [11, 41] [µM] | IC50 [12] [µM] | IC50 [13] [µM] | IC50 [15] [µM] | IC50 [16] [µM] | IC50 [17] [µM] | IC50 [18] [µM] | IC50 [19] [µM] | Compound | IC50 [14] [µM] | other results
1 | 6.4 ± 1.8 | 6.7 ± 0.64 | 8 ± 0.42 | 2 ± 0.2 | 9.7 ± 1.8 | 8.3 ± 1.5 | 7.2 ± 4 | 8.9 ± 0.92 | 4.8 ± 4.5 | ≥ 100 | 8.3 | 8.3 ± 2.4 | 1.7 ± 0.35 | 9.4 ± 5.8 | 8.3 ± 0.78 | 7.1 ± 1.3 | 13 ± 3.5 | 3.8 ± 0.6 | 25 ± 0.71 | COc1ccccc1CCc1cc(C#N)c(N)s1 [TR585, 2-Amino-5-[2-(2-methoxy-phenyl)-ethyl]-thiophene-3-carbonitrile] | 8.1 ± 0.78 | IC50 [20]: 3.5 ± 0.57 µM; IC50 [21]: 7 ± 0.42 µM; IC50 [22]: 10 ± 0.78 µM; IC50 [23]: 4.7 ± 0.38 µM; IC50 [24]: 3.96 ± 1.56 µM; IC50 [25]: 3.4 ± 2.8 µM; IC50 [26]: 11 ± 8 µM; IC50 [27]: 15 ± 4 µM; IC50 [28]: ≥ 100 µM; IC50 [29]: 10 ± 0.071 µM; IC50 [30]: ≥ 100 µM; IC50 [31]: 4.6 ± 1.3 µM; IC50 [32]: 7.2 ± 0.49 µM; IC50 [33]: 4.75 ± 0.08 µM; IC50 [34]: > 100 µM; IC50 [35]: 2.7 ± 0.95 µM; IC50 [36]: 16 ± 6.5 µM; IC50 [37]: 5.42 ± 0.69 µM; IC50 [38]: 2.6 ± 0.64 µM; IC50 [39]: ≥ 100 µM
2 | 1.6 | 1.3 ± 0.21 | 0.77 ± 0.31 | 0.42 ± 0.11 | 2 ± 0.28 | 0.83 ± 0.25 | 4.5 ± 1.7 | 1.8 ± 0.21 | 0.93 ± 0.28 | 82 ± 6 | 1.6 | 1.6 ± 0.071 | 0.36 ± 0.18 | 0.31 ± 0.087 | 2.2 ± 0.49 | 2.6 ± 2.1 | 2.2 ± 0.28 | 3.1 ± 0.07 | 2.5 ± 0.28 | COC(=O)c1cc(CCc2cc(OC)ccc2OC)sc1N [TR584, 2-Amino-5-[2-(2,5-dimethoxy-phenyl)-ethyl]-thiophene-3-carboxylic acid methyl ester] | 1.6 ± 0.21 | IC50 [20]: 0.89 ± 0.3 µM; IC50 [21]: 1.3 ± 0.071 µM; IC50 [22]: 1.8 ± 0.071 µM; IC50 [23]: 0.61 ± 0.26 µM; IC50 [24]: 0.68 ± 0.33 µM; IC50 [25]: 4.2 ± 0.07 µM; IC50 [26]: 1.1 ± 0.5 µM; IC50 [28]: 62 ± 1 µM; IC50 [29]: 1.9 µM; IC50 [30]: 2.4 ± 0.2 µM; IC50 [31]: 2.5 ± 0.6 µM; IC50 [32]: 0.87 ± 0.014 µM; IC50 [33]: 4.2 ± 0.79 µM; IC50 [34]: 7.5 ± 5.5 µM; IC50 [35]: 0.38 ± 0.11 µM; IC50 [36]: 1.4 ± 0.76 µM; IC50 [37]: 0.93 ± 0.23 µM; IC50 [38]: 0.81 ± 0.42 µM; IC50 [39]: ≥ 100 µM
